Test results reported in patent US8084424B2, “Compositions and methods related to erythropoietin” (University of Utah Research Foundation, priority 2003, dated 2011).
Where a SMILES comes first, the peptide text is derived from it. [ ]: non-standard residue; d: D form. The star is where a group is joined. Sta = CC(C)C[C@H](N)[C@@H](O)CC(=O)O; Isovaleryl = CC(C)CC(=O)*

How the values were obtained:
[1] = Aggregation and ionisation of Poly-D-glutamic acid in solution; type: physicochemical; details: 10 mg/ml, solution at pH≦6
Description: (§1) The mechanism of Poly-D-Glu-induced acute lysosomal storage condition in proximal tubular cells was addressed.

[2] = tested on: lysosomal enzymes (hexoseaminidase, cathepsin B, acid sphigomyelinase, and sulfatase B); assay: Lysosomal enzyme activities in kidney cortex after injection; type: in vivo, rat; details: one day after injection, not acid phosphatase
Description: as §1

interstitial cells = assay: Interstitial cell proliferation in rat kidney (3H-thymidine histoautoradiography, hematoxylin and eosin staining); type: in vivo
Procedure: Sprague-Dawley rats of both sexes, weighing from 180 to 200 g, were used throughout the study. A few days before the experiment, rats were adapted to the housing conditions in a central animal facility (regular 12 hours light/dark cycles, free access to standard rat chow and tap water). […] For histoautoradiographic studies, some treated animals and controls were further injected with 300 μCi of [methyl-^3H]-thymidine intraperitoneally 1 hour before their deaths.
One half of the right kidney was immersed in Boulin solution and processed for paraffin sections (approximately 5-μm thickness) destined for histopathologic and/or histoautoradiographic study. For histopathologic use, sections were stained with hematoxylin and eosin with or without periodic acid-Schiff reagent or with Giemsa stain. Histoautoradiographic studies were performed and the data were presented as described earlier (Kishore et al., 1992; Laurent et al., 1983). Briefly each section was examined along parallel straight lines, extending from the subcapsular to the juxtamedullary region. The number of total and labeled nuclei (S-phase cells) were counted, and the corresponding cell type was identified.
Histoautoradiographic labeling indices were subjected to ANOVA, and the significance of the F value was determined. […]

erythropoietin = assay: Immunohistochemical staining of kidney sections for erythropoietin; type: in vivo, rat; details: for erythropoietin staining of proliferating interstitial cells: 250 mg/kg/day sc for 4 days, euthanized on day 5; for EPO-producing peritubular cells after cessation of treatment: 6 days after the cessation of a 4-day treatment, 250 mg/kg/day
Procedure: Male Sprague-Dawley rats were divided randomly into two groups. […] Kidneys were harvested quickly from the dead rats and one half of one kidney was immersed in 10% neutral buffered formalin. The formalin fixed kidneys were dehydrated and embedded in paraffin. Sections of 3 to 4 μM thickness were cut on a microtome. Sections were deparaffinized by standard methods and processed for immunohistochemical staining for CD73 (5′-nucleotidase) and erythropoietin (Epo) as described below.
Deparaffinized kidney sections were treated for exposure of antigenic sites and blocked for non-specific binding by standard methods. Following this they were incubated with specific antibodies to CD 73 (marker for resident fibroblasts in kidney) or Epo. Goat polyclonal antibodies to CD73 and Epo were purchased from the Santa Cruz Biotechnology, Santa Cruz, Calif. They were used at a dilution of 1:50. After washing off the unreacted primary antibodies, the sections were incubated with biotinylated anti-goat polyclonal antibody (secondary antibody), followed by incubation with avidin-biotin complex. Sections were then washed and incubated with substrate to visualize the antigen-antibody reactions. Positive labeling in the sections is seen as brownish color. […] Sections were examined under a Reichert Microscope and digital images were captured using a Nikon Coolpix 0995 Digital Camera.

renal cortex = assay: Angiogenesis in the renal cortex; type: in vivo; details: treated rat kidney
kidney = assay: Renal histology: apoptosis, Trichrome staining for fibrosis, Vimetin immunostaining
Description: The immunohistochemical methods are standard and routinely used in many research and clinical labs.

[3] = 24 hour urine volume and urine osmolality; details: pre versus post treatment, versus saline
proteases = assay: Protease inhibitor test: EPO degradation in concentrated medium at pH5.0, assayed by RIA; type: biochemical; details: pH5.0, 37° C.
Procedure: Protease inhibitors can also be added to the conditioned medium in order to improve EPO yields. Several commercially available protease inhibitors were tested to see if they could prevent EPO degradation at pH5.0. 10× concentrated (Step 1) EPO medium was diluted 1:10 in 50 mM Na Acetate, pH5.0 and then incubated at 37° C. with or without protease inhibitors at a concentration of 5 micrograms/ml. Aliquots were taken over a period of 29 hours and assayed by RIA. […] Pepstatin was then tested to determine the minimum concentration at which it is effective. Under the same conditions as described above, pepstatin was included into 10× concentrated medium over range of 0.0005 to 1 ug/ml and incubated at 37° C. for 25 hours. […] To test the effect of pepstatin in the purification process, 0.2 ug/ml of pepstatin was added to the 10× concentrated medium and to the buffers for the S-Sepharose column. Under these conditions, 97% of EPO was recovered from the S-Sepharose Fast Flow column compared to approximately 60% without the use of a protease inhibitor.

Row | Compound | size of micronic aggregates formed [1] | activities of several lysosomal enzymes in the kidney cortex [2] | significant proliferative response of peritubular cells (3H-thymidine incorporation) (interstitial cells; 7 days after the cessation of treatment, earlier studies) | interstitial cell labeling (3H-thymidine) (interstitial cells; female rats treated for 2 days, versus saline) | erythropoietin staining of proliferating interstitial cells (erythropoietin; listed as Poly-D-Glu) | erythropoietin staining of proliferating interstitial cells (erythropoietin; listed as poly-D-glutamic acid) | EPO-producing peritubular cells after cessation of treatment (erythropoietin) | EPO-producing peritubular cells after cessation of treatment (erythropoietin; listed as Poly-D-Glu) | angiogenesis in the renal cortex (renal cortex) | mesenchymal changes (Vimetin immunostaining) (kidney; rat, in vivo) | fibrotic changes in the kidney (Trichrome staining) (kidney; versus saline) | ability of kidneys to concentrate urine as assessed by urine osmolality [3] | effect on EPO immunoactivity (proteases; 5 micrograms/ml, over 29 hours, RIA) | IC50 (the concentration at which 50% of the proteases are inhibited) (proteases; 10× concentrated medium, 25 hours, range 0.0005 to 1 ug/ml)
1 | Poly-D-glutamic acid | ≥ 10 μm | increased | could not be observed | considerably increased | labeled with EPO antibody | strongly stain | persistence | consistent labeling | angiogenesis | detectable mesenchymal changes | not much fibrotic reaction | does not cause marked abnormalities |  | 
2 | CC(C)CC(=O)N[C@H](C(=O)N[C@H](C(=O)N[C@@H](CC(C)C)[C@@H](O)CC(=O)N[C@@H](C)C(=O)N[C@@H](CC(C)C)[C@@H](O)CC(=O)O)C(C)C)C(C)C [Pepstatin] (Isovaleryl-VV[Sta]A[Sta]-OH) |  |  |  |  |  |  |  |  |  |  |  |  | significant stabilizing effect | approximately 0.02 ug/ml
